Earlier results, collected in paper PMC6311893, “Computational prediction of plasma protein binding of cyclic peptides from small molecule experimental data using sparse modeling techniques” (BMC Bioinformatics, 2018).
Where a name gives a salt, the structure may show the parent alone.

Tested on: plasma protein
Conditions: cited from earlier work

Compound | PPB (fb)
Nc1ccc(C(=O)O)c(O)c1 [4-aminosalicylic acid] | 0.62

Same assay, conditions: fraction bound to plasma protein; small molecule dataset, sheet 1-SM (Set Dte = test, Dtr = training); ref Ingle et al.; cited from earlier work

Compound | PPB (fb)
O=C1CN(/N=C/c2ccc(-c3ccc([N+](=O)[O-])cc3)o2)C(O)=N1 [dantrolene] | 0.89
CN(C)CCC(c1ccc(Br)cc1)c1ccccn1 (stereo not drawn) [brompheniramine] | 0.72
C[C@@H](NCCCc1cccc(C(F)(F)F)c1)c1cccc2ccccc12 [Cinacalcet hydrochloride] | 0.95
O=P(O)(O)C(Cl)(Cl)P(=O)(O)O [clodronic acid] | 0.36
COc1ccc2[nH]c([S+]([O-])Cc3ncc(C)c(OC)c3C)nc2c1 (stereo not drawn) [Omeprazole] | 0.96
CNCCCC1c2ccccc2C=Cc2ccccc21 [protriptyline] | 0.92
NCCC(O)(P(=O)(O)O)P(=O)(O)O [pamidronic acid] | 0.14
CCN[C@@H]1C[C@H](N)[C@@H](O[C@H]2OC(CN)=CC[C@H]2N)[C@H](O)[C@H]1O[C@H]1OC[C@](C)(O)[C@H](NC)[C@H]1O [Netilmicin] | 0.05
CC(=O)Nc1c(I)c(NC(C)=O)c(I)c(C(=O)O)c1I [Diatrizoic Acid (Amidotrizoate)] | 0.02

Same assay, conditions: fraction bound to plasma protein; small molecule dataset, sheet 1-SM, Set Dtr; ref Ingle et al.; cited from earlier work

Compound | PPB (fb)
COc1ccc(-c2nc3ccc(C4=NNC(=O)CC4C)cc3[nH]2)cc1 (stereo not drawn) [Pimobendan] | 0.98
N=C(N)NC(=O)Cc1c(Cl)cccc1Cl [Guanfacine] | 0.72
NS(=O)(=O)c1cc(C2(O)NC(=O)c3ccccc32)ccc1Cl (stereo not drawn) [Chlorthalidone] | 0.75
O=C(O)CCNC(=O)c1ccccc1 [Betamipron] | 0.83
CC[C@H]1OC(=O)[C@H](C)[C@@H](O[C@H]2C[C@@](C)(OC)[C@@H](O)[C@H](C)O2)[C@H](C)[C@@H](O[C@@H]2O[C@H](C)C[C@H](N(C)C)[C@H]2O)[C@](C)(O)C[C@@H](C)CN(C)[C@H](C)[C@@H](O)[C@]1(C)O [Azithromycin] | 0.23
CN(C)CCCN1c2ccccc2Sc2ccc(Cl)cc21 [Chlorpromazine] | 0.96
O=C(O)P(=O)(O)O [Foscarnet] | 0.15
N[C@@H](Cc1c[nH]c2ccccc12)C(=O)O [Tryptophan] | 0.8
C[C@H]1[C@H](NC(=O)/C(=N\OC(C)(C)C(=O)O)c2csc(N)n2)C(=O)N1S(=O)(=O)O [Aztreonam] | 0.58

Same assay, conditions: fraction bound to plasma protein; small molecule dataset, sheet 1-SM; ref Ingle et al.; cited from earlier work

Compound | PPB (fb)
S=P(N1CC1)(N1CC1)N1CC1 [Thiotepa] | 0.1
CC(Oc1ccccc1)C(=O)NC1C(=O)N2C1SC(C)(C)C2C(=O)O (stereo not drawn) [penicillin48] | 0.82
lanatoside-C | 0.25
CCOc1c(C)nc2ccccc2c1C(=O)NC1C(=O)N2C1SC(C)(C)C2C(=O)O (stereo not drawn) [penicillin79] | 0.74
CC1(C)SC2C(NC(=O)C(O)c3ccccc3)C(=O)N2C1C(=O)O (stereo not drawn) [penicillin37] | 0.53
CC(Oc1cc(Cl)cc(Cl)c1)C(=O)NC1C(=O)N2C1SC(C)(C)C2C(=O)O (stereo not drawn) [penicillin59] | 0.97
CC[C@]1(O)C[C@H]2CN(CCc3c([nH]c4ccccc34)[C@@](C(=O)OC)(c3cc4c(cc3OC)N(C=O)[C@H]3[C@@](O)(C(=O)OC)[C@H](OC(C)=O)[C@]5(CC)C=CCN6CC[C@]43[C@@H]65)C2)C1 [Vincristine] | 0.6
CC(=O)NC(CS)C(=O)O (stereo not drawn) [n-acetylcysteine] | 0.83
CC(C)OC(=O)OCOP(=O)(CO[C@H](C)Cn1cnc2c(N)ncnc21)OCOC(=O)OC(C)C [tenofovir disoproxil] | 0.07

Same assay, conditions: plasma; cited from earlier work

Compound | PPB (fb)
CCC1(O)CN2CCC1CC2C(O)c1ccnc2ccc(OC)cc12 (stereo not drawn) [Hydroxydihydroquinidine] | 0.53
CCC(=O)O[C@](Cc1ccccc1)(c1ccccc1)[C@H](C)CN(C)C [Propoxyphene] | 0.75
CN1CC[C@]23c4c5ccc(OCCN6CCOCC6)c4O[C@H]2[C@@H](O)C=C[C@H]3[C@H]1C5 [pholcodine] | 0.24
Cefodizime | 0.81
CC[C@@H](CO)NC(=O)[C@@H]1C=C2c3cccc4[nH]cc(c34)C[C@H]2N(C)C1 [methylergonovine] | 0.35
